From patent US11149018B2, “Substituted N-arylethyl-2-aminoquinoline-4-carboxamides and use thereof” (Bayer Aktiengesellschaft, priority 2017, dated 2021)

Target: FP receptor (Homo sapiens (Human), UniProt P43088)
Experiment: In vitro test of inhibition of human FP receptor activity (PGF2α-induced calcium flux in FP-expressing CHEM1 cells)
Assay type: cell-based
Details: PGF2α 2 nM, some mean values of multiple determinations
Method in brief: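 FP antagonism in FP-expressing CHEM1 cells loaded with Fluo-8. Compound preincubated 10 min at 37° C, then receptor stimulated with 2 nM (final) PGF2α in calcium-free Tyrode with 2 mM CaCl2.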

Sequence of FP receptor (P43088 whole entry): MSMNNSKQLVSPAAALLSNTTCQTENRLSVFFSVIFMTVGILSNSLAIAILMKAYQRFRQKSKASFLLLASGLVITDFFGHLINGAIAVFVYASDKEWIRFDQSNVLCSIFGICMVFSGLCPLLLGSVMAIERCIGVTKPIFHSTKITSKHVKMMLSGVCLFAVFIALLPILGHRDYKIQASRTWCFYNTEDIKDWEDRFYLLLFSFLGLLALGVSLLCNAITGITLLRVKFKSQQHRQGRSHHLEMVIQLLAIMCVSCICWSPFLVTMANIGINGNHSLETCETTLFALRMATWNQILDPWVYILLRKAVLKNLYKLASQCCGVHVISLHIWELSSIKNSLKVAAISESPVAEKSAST

Row | IC50 [nM] | SMILES
1 | 14 | Cc1c(N2CCSCC2)nc2ccc(Br)cc2c1C(=O)NCC(CCC(=O)O)c1ccccc1Cl (single isomer, unassigned; (-)) [Example 27, (−)-5-({[6-Bromo-3-methyl-2-(thiomorpholin-4-yl)quinolin-4-yl]carbonyl}amino)-4-(2-chlorophenyl)pentanoic acid]
2 | 24 | Cc1c(N2CCCO2)nc2ccc(Br)cc2c1C(=O)NCC(CCC(=O)O)c1ccccc1Cl (single isomer, unassigned; (-)) [Example 39, (−)-5-({[6-Bromo-3-methyl-2-(1,2-oxazolidin-2-yl)quinolin-4-yl]carbonyl}amino)-4-(2-chlorophenyl)pentanoic acid]
3 | 90 | Cc1c(N2CCCC(C)(C)C2)nc2ccc(Br)cc2c1C(=O)NCC(CCC(=O)O)c1ccccc1Cl (single isomer, unassigned; (-)) [Example 43, (−)-5-({[6-Bromo-2-(3,3-dimethylpiperidin-1-yl)-3-methylquinolin-4-yl]carbonyl}amino)-4-(2-chlorophenyl)pentanoic acid]
4 | 1.3 | Cc1c(N2CCCC(C)C2)nc2ccc(Br)cc2c1C(=O)NCC(CCC(=O)O)c1ccccc1Cl (single isomer, unassigned; (-)) [Example 46, (−)-5-[({6-Bromo-3-methyl-2-[3-methylpiperidin-1-yl]quinolin-4-yl}carbonyl)amino]-4-(2-chlorophenyl)pentanoic acid]
5 | 14 | Cc1c(N2CCCC(C)C2)nc2ccc(Br)cc2c1C(=O)NCC(CCC(=O)O)c1ccccc1Cl (single isomer, unassigned; (-)) [Example 49, (−)-5-[({6-Bromo-3-methyl-2-[3-methylpiperidin-1-yl]quinolin-4-yl}carbonyl)amino]-4-(2-chlorophenyl)pentanoic acid]
6 | 13 | Cc1c(N2CCCC(F)(F)C2)nc2ccc(Br)cc2c1C(=O)NCC(CCC(=O)O)c1ccccc1Cl (single isomer, unassigned; (-)) [Example 51, (−)-5-({[6-Bromo-2-(3,3-difluoropiperidin-1-yl)-3-methylquinolin-4-yl]carbonyl}amino)-4-(2-chlorophenyl)pentanoic acid]
7 | 98 | Cc1c(N2CCC[C@@H]2C)nc2ccc(Br)cc2c1C(=O)NCC(CCC(=O)O)c1ccccc1Cl (single isomer, unassigned; (-)) [Example 80]
8 | 180 | Cc1c(N2CCC[C@@H]2C)nc2ccc(Br)cc2c1C(=O)NCC(CCC(=O)O)c1ccccc1Cl (single isomer, unassigned; (-)) [Example 81]
9 | 4.6 | Cc1c(N2CCCC2)nc2ccc(Br)cc2c1C(=O)NCC(CCC(=O)O)c1ccccc1C(F)(F)F (single isomer, unassigned; (-)) [Example 116, (−)-5-({[6-Bromo-3-methyl-2-(pyrrolidin-1-yl)quinolin-4-yl]carbonyl}amino)-4-[2-(trifluoromethyl)phenyl]pentanoic acid]

Continued, molecule first:

Row | SMILES | IC50 [nM]
10 | [2H]C1([2H])N(c2nc3ccc(Br)cc3c(C(=O)NCC(CCC(=O)O)c3ccccc3OC(F)(F)F)c2C)C([2H])([2H])C([2H])([2H])C([2H])([2H])C1([2H])[2H] (single isomer, unassigned; (+)) [Example 271, (+)-5-[({6-Bromo-3-methyl-2-[(^2H10)piperidin-1-yl]quinolin-4-yl}carbonyl)amino]-4-[2-(trifluoromethoxy)phenyl]pentanoic acid] | 6.3
11 | [2H]C1([2H])N(c2nc3ccc(Br)cc3c(C(=O)NCC(CCC(=O)O)c3ccccc3OC(F)(F)F)c2C)C([2H])([2H])C([2H])([2H])C1([2H])[2H] (single isomer, unassigned; (+)) [Example 279, (+)-5-[({6-Bromo-3-methyl-2-[(^2H8)pyrrolidin-1-yl]quinolin-4-yl}carbonyl)amino]-4-[2-(trifluoromethyl)phenyl]pentanoic acid] | 11
12 | [2H]C1([2H])N(c2nc3ccc(Br)cc3c(C(=O)NCC(CCC(=O)O)c3c(F)ccc(F)c3Cl)c2C)C([2H])([2H])C([2H])([2H])C1([2H])[2H] (single isomer, unassigned; (+)) [Example 281, (+)-5-[({6-Bromo-3-methyl-2-[(^2H8)pyrrolidin-1-yl]quinolin-4-yl}carbonyl)amino]-4-(2-chloro-3,6-difluorophenyl)pentanoic acid] | 80
13 | COc1ccccc1C(CCC(=O)O)CNC(=O)c1c(C)c(N2CCCC(F)(F)C2)nc2ccc(Br)cc12 (single isomer, unassigned; (+)) [Example 289, (+)-5-({[6-Bromo-2-(3,3-difluoropiperidin-1-yl)-3-methylquinolin-4-yl]carbonyl}amino)-4-(2-methoxyphenyl)pentanoic acid] | 2.4
14 | Cc1c(N2CCCCC2)nc2ccc(Br)cc2c1C(=O)NCC(CC(=O)O)c1c(F)cccc1Cl (single isomer, unassigned; (-)) [Example 2, (−)-4-({[6-Bromo-3-methyl-2-(piperidin-1-yl)quinolin-4-yl]carbonyl}amino)-3-(2-chloro-6-fluorophenyl)butanoic acid] | 23
15 | Cc1c(N2CCCCC2)nc2ccc(Br)cc2c1C(=O)NCC(CCC(=O)O)c1cc(F)ccc1Cl (single isomer, unassigned; (-)) [Example 6, (−)-5-({[6-Bromo-3-methyl-2-(piperidin-1-yl)quinolin-4-yl]carbonyl}amino)-4-(2-chloro-5-fluorophenyl)pentanoic acid] | 7.8
16 | CCC1CCCN(c2nc3ccc(Br)cc3c(C(=O)NCC(CCC(=O)O)c3ccccc3Cl)c2C)C1 (single isomer, unassigned; (-)) [Example 59, (−)-5-[({6-Bromo-2-[3-ethylpiperidin-1-yl]-3-methylquinolin-4-yl}carbonyl)amino]-4-(2-chlorophenyl)pentanoic acid] | 11
17 | CCC1CCCN(c2nc3ccc(Br)cc3c(C(=O)NCC(CCC(=O)O)c3ccccc3Cl)c2C)C1 (single isomer, unassigned; (-)) [Example 60, (−)-5-[({6-Bromo-2-[3-ethylpiperidin-1-yl]-3-methylquinolin-4-yl}carbonyl)amino]-4-(2-chlorophenyl)pentanoic acid] | 7.5
18 | Cc1c(N2CCCCC2)nc2ccc(Br)cc2c1C(=O)NCC(CCC(=O)O)c1ccccc1C(F)(F)F (single isomer, unassigned; (-)) [Example 112, (−)-5-({[6-Bromo-3-methyl-2-(piperidin-1-yl)quinolin-4-yl]carbonyl}amino)-4-[2-(trifluoromethyl)phenyl]pentanoic acid] | 3
19 | Cc1c(N2CCCC(F)(F)C2)nc2ccc(Br)cc2c1C(=O)NCC(CCC(=O)O)c1ccccc1C(F)(F)F (single isomer, unassigned; (-)) [Example 118, (−)-5-({[6-Bromo-2-(3,3-difluoropiperidin-1-yl)-3-methylquinolin-4-yl]carbonyl}amino)-4-[2-(trifluoromethyl)phenyl]pentanoic acid] | 8.5
20 | Cc1c(N2CCCCCC2)nc2ccc(Br)cc2c1C(=O)NCC(CCC(=O)O)c1ccccc1C(F)(F)F (single isomer, unassigned; (-)) [Example 121, (−)-5-({[2-(Azepan-1-yl)-6-bromo-3-methylquinolin-4-yl]carbonyl}amino)-4-[2-(trifluoromethyl)phenyl]pentanoic acid] | 4.1
21 | Cc1c(N2CCCCC2)nc2ccc(Br)cc2c1C(=O)NCC(CCC(=O)O)c1ccccc1OC(F)(F)F (single isomer, unassigned; (-)) [Example 127, (−)-5-({[6-Bromo-3-methyl-2-(piperidin-1-yl)quinolin-4-yl]carbonyl}amino)-4-[2-(trifluoromethoxy)phenyl]pentanoic acid] | 0.79
22 | Cc1c(N2CCCC2)nc2ccc(Br)cc2c1C(=O)NCC(CCC(=O)O)c1ccccc1OC(F)(F)F (single isomer, unassigned; (-)) [Example 130, (−)-5-({[6-Bromo-3-methyl-2-(pyrrolidin-1-yl)quinolin-4-yl]carbonyl}amino)-4-[2-(trifluoromethoxy)phenyl]pentanoic acid] | 2.6
23 | Cc1c(N2CCCC(F)(F)C2)nc2ccc(Br)cc2c1C(=O)NCC(CCC(=O)O)c1ccccc1OC(F)(F)F (single isomer, unassigned; (-)) [Example 133, (−)-5-({[6-Bromo-2-(3,3-difluoropiperidin-1-yl)-3-methylquinolin-4-yl]carbonyl}amino)-4-[2-(trifluoromethoxy)phenyl]pentanoic acid] | 2
24 | Cc1c(N2CCCCCC2)nc2ccc(Br)cc2c1C(=O)NCC(CCC(=O)O)c1ccccc1OC(F)(F)F (single isomer, unassigned; (-)) [Example 136, (−)-5-({[2-(Azepan-1-yl)-6-bromo-3-methylquinolin-4-yl]carbonyl}amino)-4-[2-(trifluoromethoxy)phenyl]pentanoic acid] | 1.1
25 | Cc1c(N2CCCCC2)nc2ccc(Br)cc2c1C(=O)NCC(CCC(=O)O)c1cccc(F)c1Cl (single isomer, unassigned; (-)) [Example 142, (−)-5-({[6-Bromo-3-methyl-2-(piperidin-1-yl)quinolin-4-yl]carbonyl}amino)-4-(2-chloro-3-fluorophenyl)pentanoic acid] | 4.3
26 | Cc1c(N2CCCCC2)nc2ccc(Br)cc2c1C(=O)NCC(CCC(=O)O)c1c(Cl)ccc(F)c1F (single isomer, unassigned; (-)) [Example 145, (−)-5-({[6-Bromo-3-methyl-2-(piperidin-1-yl)quinolin-4-yl]carbonyl}amino)-4-(6-chloro-2,3-difluorophenyl)pentanoic acid] | 1.5
27 | Cc1ccc(F)cc1C(CCC(=O)O)CNC(=O)c1c(C)c(N2CCCCC2)nc2ccc(Br)cc12 (single isomer, unassigned; (-)) [Example 148, (−)-5-({[6-Bromo-3-methyl-2-(piperidin-1-yl)quinolin-4-yl]carbonyl}amino)-4-(5-fluoro-2-methylphenyl)pentanoic acid] | 4.5
